Data as given in ChEMBL document CHEMBL6153051, “Synthesis, biological evaluation and validation of IMB-881 derivatives as anti-Gram-negative bacterial agents” (Bioorg Med Chem, 2025).
≈ marks a conversion by molar mass, not a printed value.

Experiments:
[1] = test system: Klebsiella pneumoniae; test: Antibacterial activity against Klebsiella pneumoniae ATCC […] assessed as bacterial growth inhibition in presence of CAMHB medium by broth microdilution method; format: functional
[2] = test system: Escherichia coli; test: Antibacterial activity against Escherichia coli ATCC 25922 assessed as bacterial growth inhibition in presence of CAMHB medium by broth microdilution method; format: functional
[3] = test system: Acinetobacter baumannii; test: Antibacterial activity against Acinetobacter baumannii ATCC 19606 assessed as bacterial growth inhibition in presence of CAMHB medium by broth microdilution method; format: functional
[4] = Cytotoxicity against dog MDCK cells incubated for 48 hrs by CCK-8 assay; format: toxicity, cell-based; details: dog (Canis lupus familiaris)
[5] = test system: Pseudomonas aeruginosa; test: Antibacterial activity against Pseudomonas aeruginosa PAO1 assessed as bacterial growth inhibition in presence of CAMHB medium by broth microdilution method; format: functional
[6] = Cytotoxicity against green monkey Vero cells incubated for 48 hrs by CCK-8 assay; format: toxicity, cell-based; details: green monkey (Chlorocebus sabaeus)
[7] = test system: Escherichia coli; test: Antibacterial activity against multi-drug resistant Escherichia coli 3 clinical isolate assessed as bacterial growth inhibition in presence of CAMHB medium by broth microdilution method; format: functional
[8] = test system: Escherichia coli; test: Antibacterial activity against multi-drug resistant Escherichia coli 1 clinical isolate assessed as bacterial growth inhibition in presence of CAMHB medium by broth microdilution method; format: functional
[9] = test system: Escherichia coli; test: Antibacterial activity against multi-drug resistant Escherichia coli 5 clinical isolate assessed as bacterial growth inhibition in presence of CAMHB medium by broth microdilution method; format: functional
[10] = test system: Acinetobacter baumannii; test: Antibacterial activity against multi-drug resistant Acinetobacter baumannii 3 clinical isolate assessed as bacterial growth inhibition in presence of CAMHB medium by broth microdilution method; format: functional
[11] = test system: Acinetobacter baumannii; test: Antibacterial activity against multi-drug resistant Acinetobacter baumannii 2 clinical isolate assessed as bacterial growth inhibition in presence of CAMHB medium by broth microdilution method; format: functional
[12] = test system: Escherichia coli; test: Antibacterial activity against ESBL(+) producing Escherichia coli ATCC 35218 assessed as bacterial growth inhibition in presence of CAMHB medium by broth microdilution method; format: functional
[13] = test system: Acinetobacter baumannii; test: Antibacterial activity against multi-drug resistant Acinetobacter baumannii 5 clinical isolate assessed as bacterial growth inhibition in presence of CAMHB medium by broth microdilution method; format: functional
[14] = test system: Acinetobacter baumannii; test: Antibacterial activity against multi-drug resistant Acinetobacter baumannii 4 clinical isolate assessed as bacterial growth inhibition in presence of CAMHB medium by broth microdilution method; format: functional
[15] = test system: Acinetobacter baumannii; test: Antibacterial activity against multi-drug resistant Acinetobacter baumannii 1 clinical isolate assessed as bacterial growth inhibition in presence of CAMHB medium by broth microdilution method; format: functional
[16] = test system: Escherichia coli; test: Antibacterial activity against multi-drug resistant Escherichia coli 4 clinical isolate assessed as bacterial growth inhibition in presence of CAMHB medium by broth microdilution method; format: functional
[17] = test system: Escherichia coli; test: Antibacterial activity against multi-drug resistant Escherichia coli 2 clinical isolate assessed as bacterial growth inhibition in presence of CAMHB medium by broth microdilution method; format: functional

Row | Structure (SMILES) | MIC [1] | MIC [2] | MIC [3] | IC50 at 48 h [4] | MIC [5] | IC50 at 48 h [6] | further results
1 | Fc1cccc(CCN2COc3c(cc(F)c4cccnc34)C2)c1 | 25 µg/mL | 3.12 µg/mL | 3.12 µg/mL | 29.4 µg/mL (≈ 90.2 µM) | 25 µg/mL | 21.3 µg/mL (≈ 65.2 µM) | 
2 | Fc1cc2c(c3ncccc13)OCN(Cc1ccc(Cl)cc1)C2 | 100 µg/mL | 6.25 µg/mL | 6.25 µg/mL | 35.6 µg/mL (≈ 108 µM) | 50 µg/mL | > 50 µg/mL | MIC [7]: 50 µg/mL; MIC [8]: 50 µg/mL; MIC [9]: 50 µg/mL; MIC [10]: 12.5 µg/mL; MIC [11]: 25 µg/mL; MIC [12]: 25 µg/mL; MIC [13]: 25 µg/mL; MIC [14]: 3.12 µg/mL; MIC [15]: 12.5 µg/mL; MIC [16]: 50 µg/mL; MIC [17]: 50 µg/mL
3 | FC(F)(F)c1ccc(CN2COc3c(cc(Cl)c4cccnc34)C2)cc1 |  | 25 µg/mL |  |  |  |  | 
4 | Oc1ccc(CCN2COc3c(cc(F)c4cccnc34)C2)cc1 |  | > 100 µg/mL |  |  |  |  | 
5 | Clc1cc2c(c3ncccc13)OCN(Cc1ccccc1)C2 | > 100 µg/mL | 12.5 µg/mL | 6.25 µg/mL | 33.8 µg/mL (≈ 109 µM) | 100 µg/mL | > 50 µg/mL | 
6 | Fc1cc2c(c3ncccc13)OCN(CCOc1ccc(Cl)cc1)C2 | 50 µg/mL | 12.5 µg/mL | 12.5 µg/mL | 22.3 µg/mL (≈ 62 µM) | 100 µg/mL | > 50 µg/mL | 
7 | Fc1ccc(CCN2COc3c(cc(Cl)c4cccnc34)C2)cc1 | 50 µg/mL | 12.5 µg/mL | 6.25 µg/mL | 17.8 µg/mL (≈ 52.1 µM) | 100 µg/mL | 40.1 µg/mL (≈ 117 µM) | 
8 | Fc1cc2c(c3ncccc13)OCN(Cc1ccc(OC(F)(F)F)cc1)C2 |  | 25 µg/mL |  |  |  |  | 
9 | Brc1cc2c(c3ncccc13)OCN(CCCCc1ccccc1)C2 |  | 25 µg/mL |  |  |  |  | 
10 | Clc1cc2c(c3ncccc13)OCN(CCOc1ccccc1)C2 |  | 25 µg/mL |  |  |  |  | 
11 | Brc1cc2c(c3ncccc13)OCN(CCc1ccccc1)C2 |  | 25 µg/mL |  |  |  |  | 
12 | Clc1cccc(CN2COc3c(cc(Cl)c4cccnc34)C2)c1 | 50 µg/mL | 12.5 µg/mL | 12.5 µg/mL | 23.9 µg/mL (≈ 69.1 µM) | 100 µg/mL | > 50 µg/mL | 
13 | FC(F)(F)Oc1ccc(CN2COc3c(cc(Br)c4cccnc34)C2)cc1 |  | > 100 µg/mL |  |  |  |  | 
14 | Cc1ccc(CCN2COc3c(cc(Br)c4cccnc34)C2)cc1 |  | 50 µg/mL |  |  |  |  | 
15 | Clc1cc2c(c3ncccc13)OCN(CCc1cccc(Br)c1)C2 |  | > 100 µg/mL |  |  |  |  | 
16 | Clc1cccc(CN2COc3c(cc(Br)c4cccnc34)C2)c1 |  | 25 µg/mL |  |  |  |  | 
17 | Clc1cc2c(c3ncccc13)OCN(CCc1ccc(Br)cc1)C2 | > 100 µg/mL | 12.5 µg/mL | 6.25 µg/mL | 35.2 µg/mL (≈ 87.3 µM) | 100 µg/mL | > 50 µg/mL | 
18 | Fc1ccc(CN2COc3c(cc(Br)c4cccnc34)C2)c(F)c1 |  | 25 µg/mL |  |  |  |  | 
19 | Fc1ccc(CCN2COc3c(cc(Br)c4cccnc34)C2)cc1 |  | 25 µg/mL |  |  |  |  | 
20 | FC(F)(F)c1ccc(CN2COc3c(cc(Br)c4cccnc34)C2)cc1 |  | 50 µg/mL |  |  |  |  | 
21 | Brc1cc2c(c3ncccc13)OCN(Cc1ccccc1)C2 |  | 25 µg/mL |  |  |  |  | 
22 | Fc1cc2c(c3ncccc13)OCN(CCc1ccc(Cl)cc1)C2 | 50 µg/mL | 6.25 µg/mL | 25 µg/mL | 29.2 µg/mL (≈ 85.2 µM) | 100 µg/mL | > 50 µg/mL | MIC [7]: 50 µg/mL; MIC [8]: 50 µg/mL; MIC [9]: 50 µg/mL; MIC [10]: 100 µg/mL; MIC [11]: 50 µg/mL; MIC [12]: 25 µg/mL; MIC [13]: 100 µg/mL; MIC [14]: 100 µg/mL; MIC [15]: 100 µg/mL; MIC [16]: 50 µg/mL; MIC [17]: 50 µg/mL
23 | Clc1ccc(CN2COc3c(cc(Br)c4cccnc34)C2)cc1 |  | > 100 µg/mL |  |  |  |  | 
24 | Brc1ccc(CCN2COc3c(cc(Br)c4cccnc34)C2)cc1 |  | 50 µg/mL |  |  |  |  | 
25 | Cc1ccc(CCN2COc3c(cc(F)c4cccnc34)C2)cc1 |  | 25 µg/mL |  |  |  |  | 
